Reference: patent publication US11203578B2, “Oxadiazole derivatives for the treatment of genetic diseases due to nonsense mutations” (UNIVERSITA' DEGLI STUDI DIPALERMO, priority 2017, dated 2021)

What was measured:
[1] = test system: nsCFTR(G542X-opal); experiment: Immunofluorescence analysis of CFTR in nsCFTR(G542X-opal) FRT cells; type: cell-based, human; settings: 12 μM, 24 hours
Experimental: To work in a cell system containing exclusively nonsense mutations and in particular the more representative CFTR nonsense mutation, the G542X, FRT cells were engineered with a vector expressing nsCFTR (nonsense). To this aim, Site Directed Mutagenesis of the full-length CFTR cDNA cloned in the pTracer-Zeocin (pTCF-wild type) vector (Gaslini Hospital Genova, Italy) was performed (CFTR DNA available at NCBI Reference Sequence: NG_016465.4). To substitute the Glicine 542 coding codon GGA with a stop codon, was introduced a single nucleotide mutation. The first guanine of the codon, position 1624 of the cDNA, was changed in a thymine to introduce an opal nonsense mutation. We amplified the plasmid harbouring cDNA with the following primers: […]
To further evaluate the efficacy of NV914, NV848, NV930, FRT cells were transfected with the pTRACER vectors containing either the wild type CFTR or the nsCFTR(G542X-opal) cDNA and selected by Zeocin resistance. The advantage of the use of these cells is that they don't express cAMP dependent channels (as CFTR) or CFTR protein. The expression of the human CFTR wild type and nsCFTR(G542X-opal) in transfected FRT cells was evaluated by qRT-PCR and Western blot, as shown in FIG. 5.
The same FRT cells were then treated with NV914, NV848, NV930 (12 μM), and ATALUREN (12 μM) (as positive control) for 24 hours and the expression of the human CFTR wild type and nsCFTR(G542X-opal) was again evaluated by immunofluorescence analysis.
FRT cells transfected with a pTracer nsCFTR-G542X-opal vector the treated with NV848, NV914, NV930 (12 μM), and ATALUREN (12 μM) as positive control, for 24 hours and the expression of the human CFTR wild type and nsCFTR (nsCFTR-G542X-opal) was evaluated by immunofluorescence analysis.
In details, immunofluorescence analysis was used to detect the CFTR protein following the readthrough of the UGA stop codon in nsCFTR(opal) FRT cells untreated, treated with G418 as positive contro) and with PTC124 and NV848, Nv914, NV930 for 24 h. […] Nuclei (blue) were DAPI stained.

[2] = test system: nsCFTR-R553X-opal; experiment: Immunofluorescence analysis of CFTR in nsCFTR-R553X-opal FRT cells; type: cell-based, human; settings: 12 μM, 24 hours
Experimental: (§1) FRT cells were also engineered with a vector expressing nsCFTR (nonsense). To this aim, Site […] Directed Mutagenesis of the full-length CFTR cDNA cloned in the pTracer Zeocin (pTCF-wild type) vector (provided by Gaslini Hospital Genova, Italy) was performed, the CFTR DNA is available at NCBI Reference Sequence NG_016465.4. With the aim of introducing in the CFTR cDNA single base mutations c1654t or c1657t to convert, respectively, […] 552 (caa>taa ochre) or Arginine 553 (cga>tga opal) in nonsense codons, site-directed mutagenesis of the full-length cDNA cloned in the pTracer Zeocin (pTCF-wild type) vector (provided by Gaslini Hospital Genova, Italy) was performed (CFTR DNA available at NCBI Reference Sequence: NG_016465.4). The pTCF-wild type vector was amplified by PCR with the following primers: […]
(§2) To further evaluate the efficacy of NV848, NV914 and NV930 FRT cells were transfected with the pTracer vectors containing either the WT-CFTR (CFTRWT) or the R553X-CFTR and the Q552X-CFTR (nsCFTR-R553X-opal, nsCFTR-Q552X ochre) human cDNA and selected by Zeocin resistance. The expression of the CFTRWT and nsCFTR CFTR (nsCFTR-R553X-opal, nsCFTR-Q552X ochre) in transfected FRT cells was evaluated by qRT-PCR. The nsCFTR-Q552X ochre, nsCFTR-R553X-opal FRT transfected cells were treated with NV848, (12 μM), and ATALUREN (12 μM) as positive control, for 24 hours and the expression of the human CFTR was evaluated by immunofluorescence analysis.

[3] = test system: HeLa cells; experiment: Cytotoxic effects and impact on cell proliferation in HeLa cells; type: cell-based; settings: 12 μM
Experimental: HeLa cells were used to determine the possible cytotoxic effects of our compounds and the impact on cell proliferation. In FIG. 7 are reported the percentages of dead cells and proliferating cells after treatment with 12 μM compounds and 12 μM ATALUREN.

[4] = test system: nsCFTR-Q552X ochre; experiment: Immunofluorescence analysis of CFTR in nsCFTR-Q552X ochre FRT cells; type: cell-based, human; settings: 12 μM, 24 hours
Experimental: as §1, §2

[5] = test system: pFLuc-opal (UGA stop mutation); experiment: FLuc cell-based readthrough assay in HeLa FLuc-opal transfected cells; settings: 12 μM, 24 hours treatment, pFluc-opal HeLa cells, compared to untreated
Excerpt: The results disclosed in (Pibiri I., Lentini L., Tutone M., Melfi R., Pace A., Di Leonardo A. Exploring the readthrough of nonsense mutations by non-acidic Ataluren analogues selected by ligand-based virtual screening. Eur. J. Med. Chem. 122 (2016) 429-435) have been refined with 3D-QSAR (quantitative structure-activity relationships) pharmacophore modelling. The endpoint to build QSAR models was the luciferase activity known data. These values were converted to pFLUC (−log FLUC) values. In order to find the common pharmacophore hypothesis, we divided the 24 compounds in three different classes of activity related to the FLUC values (Pharm set). We considered as active, compounds with FLUC values >4.52 (ATALUREN FLUC value), as inactives, compounds with FLUC values ≤4.00, and as moderate actives, compounds with 4.39≤FLUC values ≤4,51. Dataset was randomly split into a training set (19 compounds) for models generation, and test set (5 compounds) for the validation of developed models, as reported in Table 1.
To ascertain the effectiveness of the newly synthesized ataluren analogues in promoting the readthrough of premature termination codons was used the FLuc cell-based assay. To this aim HeLa cells were transfected transiently with the plasmids pFLuc-wild type (control) and pFLuc-opal (UGA stop mutation) (NIH Chemical Genomics Center, National Institutes of Health, Bethesda, USA). FLuc gene expression was then measured by luminescence.

Row | Compound | CFTR full-length expression and membrane localization [1] | CFTR full-length expression and membrane localization [2] | dead cells ([3]; 24 h) | dead cells ([3]; 72 h) | CFTR full-length expression and membrane localization [4] | luciferase activity [5]
1 | CC(=O)Nc1noc(C)n1 [NV848, 3-acetylamino-5-methyl-1,2,4-oxadiazole] | induced the CFTR full-length expression and membrane localization | induced the CFTR full-length expression and membrane localization | 7% | 6% | induced the CFTR full-length expression and membrane localization | significant increase of luciferase activity
2 | O=C(Nc1noc(-c2c(F)c(F)c(F)c(F)c2F)n1)c1c(F)c(F)c(F)c(F)c1F [NV914, 2,3,4,5,6-pentafluoro-N-(5-(perfluorophenyl)-1,2,4-oxadiazol-3-yl)benzamide] | induced the CFTR full-length expression and membrane localization | induced the CFTR full-length expression and membrane localization | 5% | 2% | induced the CFTR full-length expression and membrane localization | significant increase of luciferase activity
3 | CCOC(=O)c1noc(-c2ccccc2)n1 [NV930, ethyl 5-phenyl-1,2,4-oxadiazole-3-carboxylate] | induced the CFTR full-length expression and membrane localization | induced the CFTR full-length expression and membrane localization | 2% | 4% | induced the CFTR full-length expression and membrane localization | significant increase of luciferase activity
